Experiment [1] concerns D54 LucT luciferase counterscreen, luminescence, 24 h. The experiment in a line: nonspecific luciferase activators in D54 LucT cells, dose response, counter-screen for N-linked glycosylation inhibitor project, cell-based, luminescence, dry powder (AID 652060).
Experiment in experiment [2]: as above
The conditions noted are these: D54 LucT luciferase counterscreen, luminescence, 24 h; at 19.5 µM (top of the series).

Each structure is given as a SMILES string. Activity calls are given as the source filed them. How the calls were made is not given here.

With `COc1cc(-c2nnc(SCC3(c4ccc(Br)cc4)OCCO3)o2)cc(OC)c1OC`, the AC40 in experiment [1] is 930 nM. On to `CCOc1ccc(S(=O)(=O)NCc2ccccn2)cc1NC(=O)c1ccccc1F`, for which, in experiment [2], the luciferase activity increase was 0% (inactive). Regarding `COc1cccc(N2CCN(C(=O)c3ccc(CS(=O)c4ccc(C)cc4)o3)CC2)c1` (stereo unspecified), in experiment [2], the luciferase activity increase is 0% (inactive). Take `Cc1cc(NC(=O)CSc2nc(-c3ccco3)cc(C(F)(F)F)n2)no1`: the luciferase activity increase in experiment [2] was 0% (inactive). For the compound `Cc1ccc(/C=N/NC(=O)C2COc3ccccc3O2)s1` (stereo unspecified), in experiment [1], the AC40 is 15300 nM. `COc1ccccc1CSc1nnc(-c2ccccc2)o1`: the AC40 in experiment [1] was 845 nM. `CCN(CC)CCOc1ccc2c(c1)C(=NNC(=O)c1ccccn1)c1cc(OCCN(CC)CC)ccc1-2`: the luciferase activity increase in experiment [2] is -33.3% (inactive). On to `CCCCOc1ccccc1C1CC(=O)NC2=C1C(=O)CCC2` (stereo unspecified), for which the luciferase activity increase in experiment [2] was 0% (inactive). On the same count and under the same terms, the same measure for `COc1ccccc1OCC(=O)NNC(=O)c1ccoc1C`: 33.3% (inactive).

Consider `COC(=O)c1cn(C(=O)c2ccc(OC)cc2)c2ccccc12`, for which the AC40 in experiment [1] was 15400 nM. Consider `Cc1[nH][nH]c(=O)c1C(c1ccc(-c2ccc(Cl)c(Cl)c2)o1)c1c(C)[nH][nH]c1=O`, for which, in experiment [2], the luciferase activity increase was 0% (inactive). Regarding `Cc1cccc(C)c1OCCNC(=O)C(=O)NCc1ccco1`, the luciferase activity increase in experiment [2] was 33.3% (inactive). For `COc1ccc2c(COC(=O)c3cccc(S(=O)(=O)NCC(C)C)c3)cc(=O)oc2c1`, in experiment [2], the luciferase activity increase was 66.7% (inactive). Same read-out and setting: next, `CC(=O)c1cccc(NC(=O)CSc2ncc(C(=O)Nc3ccccc3)c(=O)n2C)c1`: 33.3% (inactive); `Cc1ccc(CCC(=O)Nc2ncc(Cc3cc(Cl)ccc3Cl)s2)o1`: -33.3% (inactive). Take `CCOC(=O)c1ccc(Oc2cc(C)nc(SC)n2)cc1`: in experiment [1], the AC40 was 3390 nM. As for `CCCOC(=O)c1[nH]c2c(c1C)C(=O)CC(c1cccs1)C2` (stereo unspecified), the luciferase activity increase in experiment [2] was 50% (inactive). The same measure, in the same setting: the same measure for `O=C1CCN(Cc2ccccc2)c2cc3ccccc3cc21`: 0% (inactive); for `C/C(=N\NC(=O)c1c([N+](=O)[O-])c(C)nn1C)c1ccc(NC(=O)C2CCCC2)cc1`: 0% (inactive); for `CCOC(=O)COc1cccc2c(=O)n(CC(=O)NCc3ccccc3)ccc12`: 0% (inactive).

On to `O=C1CCNc2cc3ccccc3cc21`, for which the luciferase activity increase in experiment [2] is -66.7% (inactive). For the compound `Cc1ccc(Oc2ccc(S(=O)(=O)N3CCOCC3)cc2C(N)=O)c(-n2nc3ccccc3n2)c1`, the luciferase activity increase in experiment [2] is 33.3% (inactive).

As to `COc1ccc(-c2nnc(SCc3ccccc3)o2)cc1`, in experiment [1], the AC40 is 5120 nM.

On to `COc1ccccc1-c1nnc(SCc2ccccc2)o1`, for which, in experiment [1], the AC40 is 632 nM. As to `Brc1ccc(CSc2nnc(-c3ccccc3)o2)cc1`, the luciferase activity increase in experiment [2] was 0% (inactive). As to `CCCNS(=O)(=O)c1cccc(C(=O)OCc2cc(=O)oc3cc(OC)ccc23)c1`, in experiment [1], the AC40 is 2140 nM. With `COc1cc(C(=O)NCCOc2cc(C)cc(C)c2)cc(OC)c1OC`, in experiment [2], the luciferase activity increase is 33.3% (inactive).

In the case of `O=C(Cc1ccccc1)c1nnc(-c2ccccc2)o1`, the luciferase activity increase in experiment [2] was 33.3% (inactive). On to `O=C(N/N=C/c1ccc(Cl)cc1)c1sccc1OCc1ccc(F)cc1`, for which, in experiment [1], the AC40 is 1600 nM. For the compound `CCN(CC)CCCNc1nc2cc(OC)c(OC)cc2c2nc(-c3ccccc3)nn12`, the luciferase activity increase in experiment [2] is -33.3% (inactive). Regarding `COc1cc(Nc2c3c(nc4ccccc24)CCCC3)cc(OC)c1OC`, the luciferase activity increase in experiment [2] was 0% (inactive). With `Cc1ccc(C(=O)c2cc([N+](=O)[O-])ccc2N2CCOCC2)cc1C`, the luciferase activity increase in experiment [2] was 66.7% (inactive). On the same count and under the same terms, next, `CC(=O)N[C@H]1[C@@H](O[C@@H]2OC(C[C@@H](O)C3O[C@@H](n4ccc(=O)[nH]c4=O)[C@H](O)[C@@H]3O)[C@H](O)[C@H](O)[C@H]2NC(=O)/C=C/CCCCCCCCCCC(C)C)O[C@H](CO)[C@@H](O)[C@@H]1O` (stereo partly specified): -50% (inactive); `CCn1c2ccccc2c2cc(NC(=O)c3cc(OC)c(OC)c(OC)c3)ccc21`: -33.3% (inactive); `Cc1cc(C)cc(C(=O)N2CC(=O)Nc3ccccc32)c1`: 33.3% (inactive). With `Cc1cc(C)nc(/N=C(\N)Nc2ccc(OCc3ccccc3)cc2)n1`, the luciferase activity increase in experiment [2] is -33.3% (inactive). Same read-out and setting: next, `COc1ccc(CSc2nnc(-c3ccccc3)o2)cc1`: 50% (inactive). Take `Cc1cnc(NC(=O)c2cc(S(=O)(=O)N(C)C)ccc2N2CCCC2)s1`: in experiment [2], the luciferase activity increase was 0% (inactive).

Take `CCN(CC)CCC(=O)Nc1cccc2c1C(=O)c1ccccc1C2=O`: the luciferase activity increase in experiment [2] is -33.3% (inactive). On to `CCC1=Nc2cc(C(=O)NCCCOC)ccc2Sc2ccccc21`, for which the luciferase activity increase in experiment [2] is -33.3% (inactive). For `Cc1cc(=O)[nH]c(N/N=C/c2cc(C)n(CC(F)(F)F)c2C)n1`, the luciferase activity increase in experiment [2] is 0% (inactive). Still for that read-out and setting: next, `CC(=O)c1ccc(Oc2cc(C)nc(-n3nc(C)cc3C)n2)cc1`: 0% (inactive). On the same count and under the same terms, the same measure for `CCOc1ccc(NC(=O)c2cc(OC)nc3ccccc23)cc1`: 0% (inactive).

In the case of `Nc1nc(=S)c2ncn([C@@H]3O[C@H](CO)[C@@H](O)[C@H]3O)c2[nH]1`, the AC40 in experiment [1] is 5190 nM. Consider `CC(=O)N1CCC(=O)c2cc3ccccc3cc21`, for which, in experiment [2], the luciferase activity increase was 33.3% (inactive).

As for `COc1ccc(NC(=O)C(=O)c2cn(CC(=O)N3CCCC3)c3ccccc23)cc1`, the luciferase activity increase in experiment [2] is -33.3% (inactive).
